According to US4481201A, “Pharmaceutical composition containing N,N^3 -di-(β-bromopropionyl)-N^1,N^2 -dispirotripiperazinium dichloride” (Vsesojuzny Nauchno-Issledovatelsky Khimoko-Farmasevtichesky …, priority 1981, dated 1984):

What was measured:
[1] = Distribution of C^14-labeled preparation within organs and tissues of rats with sarcoma M-1; format: in vivo; conditions: rats with sarcoma M-1, intravenous
Source text: Furthermore, the particular distribution of the preparation according to the present invention within organs and tissues should also be noted.
In the case of administration of the preparation according to the present invention labeled with C^14, a higher level of radioactivity in blood is observed than in the case of prospidin labeled with C^14. A higher rate of accumulation of the preparation according to the present invention as compared to prospidin is observed in larynx, windpipe, bronchi, bone marrow, tumor and thyroid gland. The preparation according to the present invention labeled with C^14 is withdrawn from the organism within 24 hours after the intravenous administration mainly with urine, while C^14 --labeled prospidin is retained in the organism for a longer period.

[2] = Growth of graft sarcoma 536 in rats; format: in vivo; conditions: rat, in vivo, ip, rats with sarcoma 536, repeated intraperitoneal administration; read-out: Maximum tolerable dose (MTD)
Source text: (§1) The antitumor activity has been studied on white rats weighing 110-130 g, as well as on white noninbred and inbred mice weighing 17-21 g with ligated tumors. The treatment is started 5-7 days transplanting of solid tumors and the following day after the transplanting of leukotic strains. Use has been made of the following transplantable strains of the tumors:
(§2) (1) rats: Ienssen's sarcoma, sarcoma 45, sarcoma M-1, sarcoma 536;
(§3) The compounds of the general formula (I), wherein X represents Cl^- (compound 1), Br^- (compound 2) are well-soluble in an isotonic solution of sodium chloride and they are administered intraperitoneally. The doses of the compounds have been calculated in mg per kg of the animal bodyweight.

sarcoma 536 = test: Growth of graft sarcoma 536 in rats; format: in vivo; conditions: rats
Source text: as §1, §2, §3

[3] = Growth of graft Ienssen sarcoma in rats; format: in vivo; conditions: rat, in vivo, ip, rats with Ienssen sarcoma, repeated intraperitoneal administration; read-out: Maximum tolerable dose (MTD)
Source text: as §1, §2, §3

Ienssen's sarcoma = test: Growth of graft Ienssen sarcoma in rats; format: in vivo; conditions: for Ch/T chemotherapeutical index (ratio of MTD to minimum effective dose): Ienssen sarcoma
Source text: as §1, §2, §3

sarcoma 180 = test: Growth of graft sarcoma 180 in mice; format: in vivo, noninbred white mice; conditions: mice; for It, % tumor growth suppression index / Change in the animal body weight, test: 6 injections
Source text: as §1
(§4) (2) noninbred white mice: sarcoma 180, sarcoma AK, sarcoma 37, carcinoma HK;
as §3

[4] = Growth of graft sarcoma 180 in mice; format: in vivo, noninbred white mice; conditions: mouse, in vivo, ip; mice with sarcoma 180, repeated intraperitoneal administration; read-out: Maximum tolerable dose (MTD)
Source text: as §1, §4, §3

carcinoma HK = test: Growth of graft carcinoma HK in mice; format: in vivo, noninbred white mice; conditions: mice, 6 injections
Source text: as §1, §4, §3

[5] = Growth of graft carcinoma HK in mice; format: in vivo, noninbred white mice; conditions: mouse, in vivo, ip; mice with carcinoma HK, repeated intraperitoneal administration; read-out: Maximum tolerable dose (MTD)
Source text: as §1, §4, §3

[6] = 50 mg/kg intraperitoneally, 7 injections
[7] = 70 mg/kg intraperitoneally, 6 injections
[8] = hypodermally, 68.6 mg/kg, 5 injections
[9] = intramuscularly, 55.5 mg/kg, 6 injections
[10] = rats, 1 mg/kg intraperitoneally, 7 injections
[11] = rats, 4 mg/kg intraperitoneally, 6 injections
[12] = rats, 6 mg/kg intraperitoneally, 6 injections
[13] = rats, 10 mg/kg intraperitoneally, 7 injections
[14] = rats, 20 mg/kg intraperitoneally, 7 injections
[15] = rats, 40 mg/kg intraperitoneally, 5 injections
[16] = rats, 90 mg/kg intraperitoneally, 7 injections
[17] = rats, 125 mg/kg intraperitoneally, 7 injections
[18] = rats, per os, 142 mg/kg, 7 injections
[19] = 250 mg/kg intraperitoneally (MTD)

O=C(CCBr)N1CC[N+]2(CC1)CC[N+]1(CCN(C(=O)CCBr)CC1)CC2 [Compound 1, N,N^3 -di-(β-bromopropionyl)-N^1,N^2 -dispirotripiperazinium dichloride]
Coefficient of differential accumulation, Blood ([1]; 15 min): 1.43 | Coefficient of differential accumulation, Bone marrow ([1]; 15 min): 3.84 | Coefficient of differential accumulation, Bronchi ([1]; 15 min): 3.4 | Coefficient of differential accumulation, Hypophysis ([1]; 15 min): 6.3 | Coefficient of differential accumulation, Kidneys ([1]; 15 min): 10.4 | Coefficient of differential accumulation, Larynx ([1]; 15 min): 4.15 | Coefficient of differential accumulation, Liver ([1]; 15 min): 0.94 | Coefficient of differential accumulation, Lungs ([1]; 15 min): 0.95 | Coefficient of differential accumulation, Lymphonodes ([1]; 15 min): 0.69 | Coefficient of differential accumulation, Spleen ([1]; 15 min): 0.66 | Coefficient of differential accumulation, Thymus gland ([1]; 15 min): 1.67 | Coefficient of differential accumulation, Tumor ([1]; 15 min): 1.76 | Coefficient of differential accumulation, Tyroid gland ([1]; 15 min): 3.5 | Coefficient of differential accumulation, Windpipe ([1]; 15 min): 7.29 | Coefficient of differential accumulation, Blood ([1]; 30 min): 0.91 | Coefficient of differential accumulation, Bone marrow ([1]; 30 min): 6.67 | Coefficient of differential accumulation, Bronchi ([1]; 30 min): 2.83 | Coefficient of differential accumulation, Hypophysis ([1]; 30 min): 6.67 | Coefficient of differential accumulation, Kidneys ([1]; 30 min): 5.4 | Coefficient of differential accumulation, Larynx ([1]; 30 min): 3.43 | Coefficient of differential accumulation, Liver ([1]; 30 min): 0.69 | Coefficient of differential accumulation, Lungs ([1]; 30 min): 0.71 | Coefficient of differential accumulation, Lymphonodes ([1]; 30 min): 0.11 | Coefficient of differential accumulation, Spleen ([1]; 30 min): 0.33 | Coefficient of differential accumulation, Thymus gland ([1]; 30 min): 0.71 | Coefficient of differential accumulation, Tumor ([1]; 30 min): 0.91 | Coefficient of differential accumulation, Tyroid gland ([1]; 30 min): 2.73 | Coefficient of differential accumulation, Windpipe ([1]; 30 min): 4.62 | Coefficient of differential accumulation, Blood ([1]; 60 min): 0.47 | Coefficient of differential accumulation, Bone marrow ([1]; 60 min): 3.78 | Coefficient of differential accumulation, Bronchi ([1]; 60 min): 1.7 | Coefficient of differential accumulation, Hypophysis ([1]; 60 min): 5.13 | Coefficient of differential accumulation, Kidneys ([1]; 60 min): 2.6 | Coefficient of differential accumulation, Larynx ([1]; 60 min): 2.0 | Coefficient of differential accumulation, Liver ([1]; 60 min): 0.76 | Coefficient of differential accumulation, Lungs ([1]; 60 min): 0.86 | Coefficient of differential accumulation, Lymphonodes ([1]; 60 min): 0.69 | Coefficient of differential accumulation, Spleen ([1]; 60 min): 0.32 | Coefficient of differential accumulation, Thymus gland ([1]; 60 min): 0.54 | Coefficient of differential accumulation, Tumor ([1]; 60 min): 0.57 | Coefficient of differential accumulation, Tyroid gland ([1]; 60 min): 1.43 | Coefficient of differential accumulation, Windpipe ([1]; 60 min): 4.64 | Coefficient of differential accumulation, Blood ([1]; 24 hours): 0.05 | Coefficient of differential accumulation, Bone marrow ([1]; 24 hours): 0.76 | Coefficient of differential accumulation, Bronchi ([1]; 24 hours): 0.24 | Coefficient of differential accumulation, Hypophysis ([1]; 24 hours): 4.12 | Coefficient of differential accumulation, Kidneys ([1]; 24 hours): 0.53 | Coefficient of differential accumulation, Larynx ([1]; 24 hours): 0.58 | Coefficient of differential accumulation, Liver ([1]; 24 hours): 0.32 | Coefficient of differential accumulation, Lungs ([1]; 24 hours): 0.26 | Coefficient of differential accumulation, Lymphonodes ([1]; 24 hours): 0.2 | Coefficient of differential accumulation, Spleen ([1]; 24 hours): 0.11 | Coefficient of differential accumulation, Thymus gland ([1]; 24 hours): 0.2 | Coefficient of differential accumulation, Tumor ([1]; 24 hours): 0.26 | Coefficient of differential accumulation, Tyroid gland ([1]; 24 hours): 0.48 | Coefficient of differential accumulation, Windpipe ([1]; 24 hours): 0.6 | MTD [2]: 140 mg/kg | tumor growth suppression class, Sarcoma 536 (sarcoma 536): ++ (tumor growth suppression by 80-95%) | Change in the animal body weight, test (sarcoma 536; [6]): -15 g | It, % tumor growth suppression index (sarcoma 536; [6]): +45% | Change in the animal body weight, test (sarcoma 536; [7]): -22 g | It, % tumor growth suppression index (sarcoma 536; [7]): +55% | Change in the animal body weight, test (sarcoma 536; 140 mg/kg intraperitoneally (MTD), 6 injections): -32 g | It, % tumor growth suppression index (sarcoma 536; 140 mg/kg intraperitoneally (MTD), 6 injections, listed as preparation of the invention, 140 mg/kg): 78% | MTD [3]: 160 mg/kg | Ch/T chemotherapeutical index (ratio of MTD to minimum effective dose) (Ienssen's sarcoma): 60 | Ch/T chemotherapeutical index (ratio of MTD to minimum effective dose) (Ienssen's sarcoma; listed as Preparation of the invention): 60 | Change in the bodyweight of animals, test (Ienssen's sarcoma; [8]): -6 g | It, % (Ienssen's sarcoma; [8]): +86% | Change in the bodyweight of animals, test (Ienssen's sarcoma; [9]): -11 g | It, % (Ienssen's sarcoma; [9]): +78% | Change in the animal body weight, test (Ienssen's sarcoma; [10]): -2 g | It, % tumor growth suppression index (Ienssen's sarcoma; [10]): 0% | Change in the animal body weight, test (Ienssen's sarcoma; rats, 2 mg/kg intraperitoneally, 6 injections): -1 g | Change in the animal body weight, test (Ienssen's sarcoma; [11]): 0 g | It, % tumor growth suppression index (Ienssen's sarcoma; [11]): +81% | Change in the animal body weight, test (Ienssen's sarcoma; [12]): +10 g | It, % tumor growth suppression index (Ienssen's sarcoma; [12]): +80% | Change in the animal body weight, test (Ienssen's sarcoma; [13]): +4 g | It, % tumor growth suppression index (Ienssen's sarcoma; [13]): +93% | Change in the animal body weight, test (Ienssen's sarcoma; [14]): +30 g | It, % tumor growth suppression index (Ienssen's sarcoma; [14]): +98% | Change in the animal body weight, test (Ienssen's sarcoma; [15]): +20 g | It, % tumor growth suppression index (Ienssen's sarcoma; [15]): +85% | Change in the animal body weight, test (Ienssen's sarcoma; [16]): +6 g | It, % tumor growth suppression index (Ienssen's sarcoma; [16]): +86% | Change in the animal body weight, test (Ienssen's sarcoma; [17]): +4 g | It, % tumor growth suppression index (Ienssen's sarcoma; [17]): +89% | Change in the animal body weight, test (Ienssen's sarcoma; rats, 160 mg/kg intraperitoneally (MTD), 7 injections): -12 g | Change in the bodyweight of animals, test (Ienssen's sarcoma; [18]): -15 g | It, % (Ienssen's sarcoma; [18]): +55% | range of therapeutical action as compared to prospidin (Ienssen's sarcoma; wider than prospidin): 2.5 fold | tumor growth suppression class, Sarcoma 180 (sarcoma 180): ++ (tumor growth suppression by 80-95%) | It, % tumor growth suppression index (sarcoma 180; 25 mg/kg intraperitoneally): +42% | Change in the animal body weight, test (sarcoma 180; 75 mg/kg intraperitoneally): -4 g | It, % tumor growth suppression index (sarcoma 180; 75 mg/kg intraperitoneally, 75 mg/kg): +74% | It, % tumor growth suppression index (sarcoma 180; 75 mg/kg intraperitoneally, listed as preparation of the invention, 75 mg/kg): 74% | Change in the animal body weight, test (sarcoma 180; 262 mg/kg intraperitoneally (MTD)): -6 g | MTD [4]: 262 mg/kg | Change in the animal body weight, test (carcinoma HK; 125 mg/kg intraperitoneally): -3 g | It, % tumor growth suppression index (carcinoma HK; 125 mg/kg intraperitoneally): +42% | Change in the animal body weight, test (carcinoma HK; [19]): -4 g | It, % tumor growth suppression index (carcinoma HK; [19]): +86% | MTD [5]: 250 mg/kg
